# Target: recombinant GST-tagged MDM2 / p53 peptide (Homo sapiens, UniProt Q00987)
# Test: HTRF assay of inhibition of the p53-MDM2 interaction
# Assay type: binding
# Conditions: GST-MDM2 and biotinylated p53 peptide, 37° C. 1 h
# Procedure: The ability of the compounds to inhibit the interaction between p53 and MDM2 proteins was measured by an HTRF (homogeneous time-resolved fluorescence) assay in which recombinant GST-tagged MDM2 binds to a peptide that resembles the MDM2-interacting region of p53 (Lane et al.). Binding of GST-MDM2 protein and p53-peptide (biotinylated on its N-terminal end) is registered by the FRET (fluorescence resonance energy transfer) between Europium (Eu)-labeled anti-GST antibody and streptavidin-conjugated Allophycocyanin (APC).
# Test is performed in black flat-bottom 384-well plates (Costar) in a total volume of […] containing:90 nM biotinylate peptide, 160 ng/ml GST-MDM2, 20 nM streptavidin-APC (PerkinElmerWallac), 2 nM Eu-labeled anti-GST-antibody (PerkinElmerWallac), 0.2% bovine serum albumin (BSA), 1 mM dithiothreitol (DTT) and 20 mM […] (TBS) buffer as follows: Add 10 uL of GST-MDM2 (640 ng/ml working solution) in reaction buffer to each well. Add 10 uL diluted compounds (1:5 dilution in reaction buffer) to each well, mix by shaking. Add 20 uL biotinylated p53 peptide (180 nM working solution) in reaction buffer to each well and mix on shaker. Incubate at 37° C. for 1 h. Add 20 uL streptavidin-APC and Eu-anti-GST antibody mixture (6 nM Eu-anti-GST and 60 nM streptavidin-APC working solution) in TBS buffer with 0.2% BSA, shake at room temperature for 30 minutes and read using a TRF-capable plate reader at 665 and 615 nm (Victor 5, Perkin ElmerWallac). If not specified, the reagents were purchased from Sigma Chemical Co.
# Sequence of recombinant GST-tagged MDM2 / p53 peptide (Q00987 whole entry): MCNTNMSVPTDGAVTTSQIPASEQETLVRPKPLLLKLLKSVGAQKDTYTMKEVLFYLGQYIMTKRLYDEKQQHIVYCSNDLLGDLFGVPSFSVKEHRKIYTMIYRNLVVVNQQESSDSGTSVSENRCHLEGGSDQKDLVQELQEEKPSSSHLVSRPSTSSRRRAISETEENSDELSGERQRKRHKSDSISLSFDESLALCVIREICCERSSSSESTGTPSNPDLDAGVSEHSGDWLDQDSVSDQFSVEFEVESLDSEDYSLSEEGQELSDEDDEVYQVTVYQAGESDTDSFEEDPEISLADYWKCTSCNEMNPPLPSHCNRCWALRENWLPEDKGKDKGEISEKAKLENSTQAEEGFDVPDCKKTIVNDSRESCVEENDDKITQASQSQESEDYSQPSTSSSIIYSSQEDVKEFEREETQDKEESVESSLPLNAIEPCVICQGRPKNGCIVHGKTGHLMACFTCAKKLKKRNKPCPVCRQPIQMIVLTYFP
row,SMILES,IC50 [nM]
1,"CCOc1cc(C(F)(F)F)ccc1C1=NC(c2ccc(Cl)cc2)C(c2ccc(Cl)cc2)N1C(=O)N1CCN(S(=O)(=O)C(C)C)CC1 (centres unmarked) [Example 6, [4,5-Bis-(4-chloro-phenyl)-2-(2-ethoxy-4-trifluoromethyl-phenyl)-4,5-dihydro-imidazol-1-yl]-[4-(propane-2-sulfonyl)-piperazin-1-yl]-methanone]",100
2,"CCOc1cc(C(F)(F)F)ccc1C1=NC(c2ccc(Cl)cc2)C(c2ccc(Cl)cc2)N1C(=O)N1CCC(NCC(=O)N(C)CCC#N)CC1 (centres unmarked) [Example 176, 2-{1-[4,5-Bis-(4-chloro-phenyl)-2-(2-ethoxy-4-trifluoromethyl-phenyl)-4,5-dihydro-imidazole-1-carbonyl]-piperidin-4-ylamino}-N-(2-cyano-ethyl)-N-methyl-acetamide]",21
3,"CCOc1cc(C(F)(F)F)ccc1C1=NC(c2ccc(Cl)cc2)C(c2ccc(Cl)cc2)N1C(=O)N(C)c1ccccn1 (centres unmarked) [Example 36, 4,5-Bis-(4-chloro-phenyl)-2-(2-ethoxy-4-trifluoromethyl-phenyl)-4,5-dihydro-imidazole-1-carboxylic acid methyl-pyridin-2-yl-amide]",4260
4,"CCOc1cc(C(F)(F)F)ccc1C1=NC(c2ccc(Cl)cc2)C(c2ccc(Cl)cc2)N1C(=O)N1CCC(C(=O)OC)CC1 (centres unmarked) [Example 16, 1-[4,5-Bis-(4-chloro-phenyl)-2-(2-ethoxy-4-trifluoromethyl-phenyl)-4,5-dihydro-imidazole-1-carbonyl]-piperidine-4-carboxylic acid methyl ester]",1740
5,"CCOc1cc(C(F)(F)F)ccc1C1=NC(c2ccc(Cl)cc2)C(c2ccc(Cl)cc2)N1C(=O)N1CCC(n2c(=O)[nH]c3ccccc32)CC1 (centres unmarked) [Example 26, 1-{1-[4,5-Bis-(4-chloro-phenyl)-2-(2-ethoxy-4-trifluoromethyl-phenyl)-4,5-dihydro-imidazole-1-carbonyl]-piperidin-4-yl}-1,3-dihydro-benzoimidazol-2-one]",800
